# Measured values from US7955852B2, “Expansion of renewable stem cell populations” (Gamida Cell Ltd., priority 2002, dated 2011).
# Values joined by “and” are separate entries in the source; they are usually repeats but may differ in a detail not shown here. Equal entries are not always repeated.
# Assays:
# [1] = test system: CD34+ cells; assay: Colony forming unit (CFU / LTC-CFUc) ability of ex-vivo CD34+ cell cultures; assay type: cell-based, human; details: for No. of CFU*103: 10^−5 M, treated for one week only
# Protocol: (§1) Total cell counts, numbers of CD34^+ cells and subsets, and CFU numbers are presented as cumulative numbers, with the assumption that the cultures had not been passaged; i.e., the number of cells per ml were multiplied by the number of passages performed.
# Cells were cloned in semi-solid, methylcellulose-containing medium supplemented with 2 IU/ml erythropoietin (Eprex, Cilag AG Int., Switzerland), stem cell factor and IL-3, both at 20 ng/ml, and G-CSF and GM-CSF, both at 10 ng/ml (all from Perpo Tech). Cultures were incubated for 14 days at 37° C., 5% CO2 in a humidified atmosphere.
# Briefly, the ability of the cultures to maintain self-renewal was measured by determination of the content of colony forming unit cells in the long and extended long-term cultures (LTC-CFUc), as described in the references hereinabove.
# [2] = test system: mononuclear cells; assay: Ex-vivo expansion of whole mononuclear cell fraction (MNC) cultures; FACS of reselected CD34+ cells; assay type: cell-based, human; details: 10^−6 M + cytokines; for % CD34/Lin−: reselected CD34+ fraction, listed as RAR antagonist
# Protocol: Human blood cells were obtained from umbilical cord blood from female patients following full-term, normal delivery (informed consent was obtained).
# Samples were collected and processed within 12 hours postpartum. Blood was mixed with 3% Gelatin (Sigma, St. Louis, Mo.), sedimented for 30 minutes to remove most red blood cells. The leukocyte-rich fraction was harvested and layered on a Ficoll-Hypaque gradient (1.077 gram/ml; Sigma), and centrifuged at 400 g for 30 minutes. The mononuclear cell fraction in the interface layer was collected, washed three times and resuspended in phosphate-buffered saline (PBS) solution (Biological Industries) containing 0.5% bovine serum albumin (BSA, Fraction V; Sigma).
# Alternatively, whole mononuclear fraction cells (MNC) were isolated, cultured and supplemented with cytokines, as above.
# CD34^+ purified and whole MNC cultures were prepared and maintained as described above. AGN 194310 RAR antagonist was added to test cultures at concentrations ranging from 1×10^−3-1×10^−11 M [or 410 μg/l to 4.1×10^−5 μg/l]. The antagonist was added for a predetermined, limited period, for up to three weeks or continuously during the entire culture period.
# CD34 surface expression on short and long-term cultures initiated either with purified CD34^+ cells or the entire MNC fraction was determined as follows: CD34^+ cells were positively reselected (Miltenyi kit) and counted. Purity was confirmed by subsequent FACS and cell morphology analysis.
# Reselected CD34^+ cell subsets were stained for the following combination of antigens: CD34PE/CD38FITC and CD34PE/38, 33, 14, 15, 3, 4, 61, 19 (Lin) FITC. The fraction positive for CD34 and negative for CD38 was defined as CD34^+CD38^−. The fraction positive for CD34 and negative for LIN was defined as CD34^+Lin^− cell fraction.
# as §1
# [3] = test system: primary hepatocytes; assay: Primary hepatocyte cultures; α-fetoprotein/albumin immunostaining and Giemsa morphology; assay type: cell-based, mice; details: for oval cell population (Giemsa) / α-fetoprotein (AFP) expression vs control: 10^−5 M, three week old primary cultures, no cytokines
# Protocol: Three intact livers were harvested from 3 week old VLVC female mice (Harlan Laboratories, Jerusalem, Israel), dissected and washed twice with DMEM (Beit Haemek, Israel), incubated with DMEM in the presence 0.05% collagenase for 30 minutes at 37° C., ground and passed through a 200 μm mesh sieve, yielding individual hepatocytes. Cells were washed twice and viability was ascertained with trypan blue. Cells were plated in collagen-coated, 35 mm tissue culture plates at a density of 4-×10^4 live cells/ml in F12 media (containing 15 mM Hepes, 0.1% glucose, 10 mM sodium bicarbonate, 100 units/ml penicillin-streptomycin, glutamine, 0.5 units/ml insulin, 7.5 m cg/ml hydrocortisone, and 10% fetal bovine serum). Medium was changed after 12 hours, the cells were washed twice with phosphate buffered saline (PBS) and new medium was added. Medium was changed twice a week.
# Hepatocytes were also grown in the presence of Epidermal Growth Factor (EGF), Platelet-Derived Growth Factor β chain (PDGF-BB), Fibroblast growth Factors (FGF4) and Hepatocyte Growth Factor (HGF), at 20-50 ng/ml each, for the entire culturing period according to the method of Schwartz et al. (Schwartz R E, Reyes M, Koodie L, Jiang Y, Blackstad M, Lund T, Lenvik T, Johnson S, Hu W S, Verfaillie C M. Multipotent adult progenitor cells from bone marrow differentiate into functional hepatocyte-like cells. J Clin Invest. 2002; 109 (10): 1291-302). Hepatocytes were also grown in serum free medium according to the method of Runge et al. (Runge D, Runge D M, Jager D, Lubecki K A, Beer Stolz D, Karathanasis S, Kietzmann T, Strom S C, Jungermann K, Fleig W E, Michalopoulos G K. Serum-free, long-term cultures of human hepatocytes: maintenance of cell morphology, transcription factors, and liver-specific functions. Biochem Biophys Res Commun. 2000; 269(1): 46-53).
# In all of the above-mentioned hepatocytes culture conditions, cells are grown in the presence or absence of the retinoic acid antagonist AGN 194310 at concentrations ranging from 10^−5 M to 10^−9 M.
# After a period of 3 weeks, cultures treated with 10^−5 M antagonist were detached with 0.25% trypsin, split and replated at a 1:2 ratio. The cells were either immunostained as described below, or visualized with Giemsa staining.
# Murine hepatocyte cultures supplemented with EGF and HGF were evaluated as primary cultures, or following first and second passages. First passage cultures were grown for 2 weeks, split 1:2 and immunostained 8 days later for the presence of albumin, as described below. Second passage cultures were similarly grown for 2 weeks, split 1:2, and grown for an additional week, then split 1:4 and similarly immunostained 4 days later.
# Ex-vivo expanded cells and hepatocytes were stained with Giemsa stain, according to manufacturer's instructions (Shandon, Pittsburg, Pa.) for 4 minutes at room temperature, washed in buffer solution for 4 minutes and washed 3-4 times with rinse solution.
# Hepatocytes were probed for expression of α-fetoprotein (AFP) using a rabbit polyclonal antibody raised against a recombinant protein of human origin that cross-reacts with AFP from mouse (H-140 Santa Cruz Technology, Santa Cruz, Calif.), and albumin using a rabbit antiserum to mouse albumin (Cappel-ICN, Aurora, Ohio). Cells were fixed in methanol at −20° C. for 10 minutes, rinsed with PBS for 5 minutes, and permeabilized with 0.1% triton-X (Sigma, Jerusalem, Israel) in PBS for 5 minutes. The cells were then washed with Tris buffer saline (TBS) for 5 minutes and incubated with 1% bovine serum albumin (BSA) in PBS for 10 minutes. Endogeneous peroxidases were inactivated by incubation with peroxidase block (Envision, Dako, Carpinteria, Calif.) for 5 minutes, at room temperature. Cells were incubated with antibodies raised in rabbit against mouse albumin (at a dilution of 1:100); or against α-fetoprotein (at a dilution of 1:25) for 30 minutes. […]
# [4] = listed as retinoic acid antagonist
structure (smiles),measurement,setting,value
"CCc1ccc(C2=CC(C)(C)Sc3ccc(C#Cc4ccc(C(=O)O)cc4)cc32)cc1 [AGN 194310, 4-[[4-(4-ethylphenyl)-2,2-dimethyl-(2H)-thiochroman-6-yl]-ethynyl]benzoic acid]",No. of CFU*103,[1]; week 13,66355 *103
same,No. of CFU*103,[1]; week 20,0 *103
same,increase of CFU content,"[1]; extended long-term (8-10 week) cultures, pulse-treatment or continuous treatment",15 ×10^4
same,increase in CFU content as compared to control,[1]; long-term (6 weeks) cultures pulsed for the first 3 weeks,5 fold
same,increase in CFU content as compared to control,"[1]; long-term cultures, antagonist administered continuously",5 fold
same,mixed colony forming unit (CFU-mix) content vs control,"[1]; long-term cultures, pulsed first 3 weeks or continuous (FIG. 7)",dramatic increase
same,No of CD34+/Lin− × 10^4 (cumulative value),[2]; 2 weeks,132.5 × 10^4
same,No of CD34 cells × 10^4 (cumulative value),[2]; 2 weeks,169 × 10^4
same,% CD34/Lin−,[2]; 2 weeks,78% and 78.4%
same,No of CD34+/Lin− × 10^4 (cumulative value),[2]; 5 weeks,237.8 × 10^4
same,No of CD34 cells × 10^4 (cumulative value),[2]; 5 weeks,985 × 10^4
same,% CD34/Lin−,[2]; 5 weeks,24% and 24.1%
same,number of hepatocytes in second passage cultures vs controls,"[3]; 10^−5 M to 10^−7 M, second passage, EGF and HGF supplemented",Significantly greater numbers of hepatocytes
same,oval cell population (Giemsa),[3],marked increase
same,α-fetoprotein (AFP) expression vs control,[3],marked increase
same,oval cell population (Giemsa),[3]; [4],large population
same,α-fetoprotein (AFP) expression vs control,[3]; [4],increase
same,oval cells in first passage cultures,"[3]; first passage, EGF and HGF supplemented",numerous islets of oval cells
same,α-fetoprotein staining,[3]; three weeks old primary cultures supplemented with EGF and HGF,Significant strong AFP staining
